In patent US20210196714A1, “COMPOSITIONS AND METHODS FOR TREATING DISORDERS CHARACTERIZED WITH ABERRANT RAS/MAPK SIGNALING” (Duke University, priority 2018, published 2021):
Entries after “also recorded” stand apart in the source; their conditions may differ.

What was measured:
[1] = system: kmt2d+/−×kmt2d+/− progeny; assay: Neural differentiation (sox2/huc staining) in stable kmt2d mutant; type: in vivo, zebrafish; conditions: 100 mM dmDf, 2 dpf
Source text: (§1) FIG. 12: Treatment with dmDf rescues the defects of stable kmt2d mutant. kmt2d+/− adults were in-crossed and the embryos were then collected at 1 dpf, 2 dpf and 5 dpf to assess dmDf efficacy. […] Error bars show SEM (standard error of the mean).
(§2) Although the small molecule testing data in CRISPR F0 mosaic models are consistent with morphant phenotypes (and rescue), experiments recognized the necessity of testing the potential efficacy of dmDf in a stable genetic model that is a better genotypic proxy to human patients. […] In addition to examining proliferation of cells in the brain, experiments assessed whether neural differentiation is affected (see, Van Laarhoven, P. M. et al. Hum Mol Genet 24, 4443-53 (2015)).
(§3) For convergence and extension (CE) phenotyping, embryos were scored as described (see, Leitch, C. C. et al. Nat Genet 40, 443-8 (2008)) at the 8-10 somite stage, and images were captured using an AZ100 microscope and NIS Elements software (Nikon). […] The distance between Meckel's (MK) and ceratohyal (CH) cartilages was measured on ventral bright field images with Image J (NIH). […] Fluorescence signal on embryo heads was imaged with the Nikon AZ100 microscope and DS-Qi1MC digital camera using […] Z-stacks to generate extended depth of focus images. Cell numbers were quantified using the ImageJ ICTN plugin (NIH). […]

[2] = Solubility test in egg water; type: physicochemical; conditions: DMSO stock diluted in water (100×)
Procedure: To guard against possible bias, the tool and negative control compounds were interspersed across the experiment and the zebrafish phenotyping team was blinded to the identity of each compound. Typical of small molecule storage, each of the 29 compounds was dissolved in dimethyl sulfoxide (DMSO). Therefore, such compounds were first diluted in water (100×) and its solubility tested in egg water; three compounds were insoluble and were thus removed from further testing (see, FIG. 1A). Next, each compound was diluted serially with egg water and toxicity tested by assaying the percentage of abnormal or dead embryos across three different concentrations (10 μM, 1 μM, 100 nM; FIG. 1B).

[3] = system: rap1- and kdm6a-depleted zebrafish; assay: CE defects caused by loss of rap1 and kdm6a; type: in vivo
Procedure: FIG. 4: Compound 8 ameliorates the CE and jaw defects caused by loss of rap/and kdm6a. (a) gRNA targeting both zebrafish rap1a and rap1b were injected into embryos at the 1-cell stage with Cas9 protein. Larvae were incubated with compound 8 (100 nM) at the 8-cell stage and scored for micrognathia. 5 dpf larvae were stained with Alcian blue to assess the layout of the jaw cartilage. In comparison to control embryos (top), rap1-CRISPR embryos have smaller jaws. […] (b) Quantitative measurement of the distance between MK and CH cartilages. (c) Larvae were scored for CE (n>30 for each concentration). (d) 5 dpf embryos were stained with Alcian blue to assess the layout of jaw cartilage. […] (e) Quantitative measurement of the distance between MK and CH cartilages. *p<0.05; ***p<0.001. […]
as §3

[4] = system: kmt2d+/−×kmt2d+/− progeny; assay: CE defect in stable kmt2d mutant intercross progeny; type: in vivo, zebrafish; conditions: 100 mM dmDf, 1 dpf
Source text: as §1, §2, §3

kmt2d-CRISPR embryos = assay: Brain cell proliferation (pHH3 immunostaining) in kmt2d-mosaic mutants; type: in vivo, zebrafish; conditions: 100 nM, 2 dpf, listed as dmDf
Source text: (§4) Intellectual disability represents a major phenotype in KS, with some studies reporting almost 90% of patients to be affected (see, Wessels, M. W., et al. Clin Dysmorphol 11, 95-102 (2002)). […] Previous studies have shown that defects in proliferation in the developing zebrafish brain can be a proxy for neurodevelopmental and neurocognitive traits, especially in the context of microcephaly (see, Borck, G. et al. Genome Res 25, 609 (2015); Brooks, S. S. et al. Genetics 198, 723-33 (2014); O'Rawe, J. A. et al. Am J Hum Genet 97, 922-32 (2015); Wortmann, S. B. et al. Am J Hum Genet 96, 245-57 (2015)), a phenotype reported commonly in KS (see, Matsumoto, N. & Niikawa, N. Am J Med Genet C Semin Med Genet 117C, 57-65 (2003)).
as §3

[5] = system: zebrafish kmt2d morphants; assay: Rescue of convergent-extension (CE) phenotype in kmt2d morphants; type: in vivo; conditions: dose response
kdm6a morphants = assay: Brain cell proliferation (pHH3 immunostaining) in kdm6a morphants; type: in vivo, zebrafish; conditions: 100 nM, 2 dpf, listed as dmDf
Source text: as §4, §3

## CC(C)c1nc(-c2cccc(NS(=O)(=O)c3c(F)cccc3F)c2F)c(-c2ccnc(N)n2)s1 [Compound 8, desmethyl-Dabrafenib]
[1]
  perturbed differentiation (organization of sox2+ and huc+ cells): appears to ameliorate; also recorded: attenuated this pathology
[2]
  solubility tested in egg water: soluble
[3]
  CE defects: ameliorates
[4]
  CE defect: ameliorates significantly
[4]; p<0.001
  embryos showing Class I or Class II CE defects: 20%
kmt2d-CRISPR embryos
  total number of proliferating (pHH3+) cells in brain: can be rescued; also recorded: restored the total number of proliferating cells to wild type levels
[5]; 50 and 100 nM
  CE defects at 50 nM and 100 nM doses: Significant rescue
[5]; above 100 nM up to 1 μM
  CE rescue at dosages beyond 100 nM: higher dosages did not improve efficacy any further
kdm6a morphants
  total number of proliferating (pHH3+) cells in brain: significantly increases pHH3+ proliferating cells; also recorded: restored the total number of proliferating cells to wild type levels
